Test: Inhibition of Saccharomyces cerevisiae alpha-Glucosidase using p-nitrophenyl-alpha-D-glucopyranoside as substrate assessed as formation of para-nitrophenol preincubated for 5 mins followed by addition of substrate measured after 15 mins by microplate reader analysis

SMILES: COc1cc(O)cc(C(=O)O)c1C(=O)c1c(O)c(Cl)c(C)c(Cl)c1O
- IC50: 42 nM

SMILES: COc1cc(/C=C2\OC(=O)C(c3ccc(O)cc3)=C2O)ccc1O
- IC50: 22 nM

SMILES: COC(=O)[C@]1(Cc2ccc(O)c(CC=C(C)C)c2)OC(=O)C(OC)=C1c1ccc(O)c(O)c1
- IC50: 16 nM

SMILES: COC(=O)c1cc(O)cc(O)c1C(=O)c1c(O)c(Cl)c(C)c(Cl)c1O
- IC50: > 2000 nM

SMILES: COC(=O)c1cc(O)cc(OC)c1Oc1cc(C)c(Cl)c(O)c1C(=O)O
- IC50: > 2000 nM

SMILES: COC(=O)[C@]1(Cc2ccccc2)OC(=O)C(O)=C1c1ccccc1
- IC50: 385 nM

SMILES: COC(=O)[C@]1(Cc2ccc(O)cc2)OC(=O)C(O)=C1c1ccc(O)cc1
- IC50: 126 nM

SMILES: COc1cc(/C=C2\OC(=O)C(c3ccc(O)cc3)=C2O)cc(OC)c1O
- IC50: 79 nM

SMILES: COc1cc(O)cc(C(=O)O)c1Oc1cc(C)cc(O)c1C(=O)O
- IC50: > 2000 nM

SMILES: COC(=O)c1c(O)c(Cl)c(C)c(Cl)c1Oc1c(OC)cc(O)cc1C(=O)O
- IC50: 1480 nM

SMILES: COC(=O)c1cc(O)cc(OC)c1Oc1cc(CO)cc(O)c1C(=O)O
- IC50: > 2000 nM

SMILES: C[C@@H]1O[C@@H](O[C@@H]2[C@@H](O)[C@H](O)[C@H](O[C@H]3[C@H](O)[C@@H](O)C(O)O[C@@H]3CO)O[C@H]2CO)[C@@H](O)[C@H](O)[C@H]1N[C@H]1C=C(CO)[C@@H](O)[C@H](O)[C@H]1O (some centres undefined)
- IC50: 685 nM

SMILES: COC(=O)c1cc(O)cc(O)c1C(=O)c1c(O)cc(C)cc1O
- IC50: 199 nM

SMILES: O=C1O/C(=C\c2ccc(O)cc2)C(O)=C1c1ccc(O)cc1 [ASPULVINONE E]
- IC50: 2700 nM

SMILES: COC(=O)c1cc(O)cc(OC)c1Oc1cc(C)cc(O)c1C(=O)O [ASTERRIC ACID]
- IC50: > 2000 nM

SMILES: COC(=O)c1cc(O)cc(OC)c1Oc1c(Cl)c(C)c(Cl)c(O)c1C(=O)O [GEODIN HYDRATE]
- IC50: 91 nM

SMILES: COC(=O)c1cc(O)cc(OC)c1Oc1cc(C)c(Cl)c(O)c1C(=O)OC [METHYL CHLOROASTERRATE]
- IC50: > 2000 nM

SMILES: COC(=O)c1cc(O)cc(OC)c1Oc1c(Cl)c(C)c(Cl)c(O)c1C(=O)OC [METYL DICHLOROASTERRATE]
- IC50: 1450 nM

SMILES: O=c1c(O)c(-c2ccc(O)c(O)c2)oc2cc(O)cc(O)c12 [QUERCETIN]
- IC50: 15 nM

From ChEMBL document CHEMBL3751763, “Polyketide butenolide, diphenyl ether, and benzophenone derivatives from the fungus Aspergillus flavipes PJ03-11” (Bioorg Med Chem Lett, 2016)
